Some test systems named below: 786-0 renal; CAKI-1 renal; COLO 205 colon; HOP-92 NSCLC; HS 578T breast; MOLT-4 leukemia; SF-268 CNS; SK-OV-3 ovarian; T-47D breast; SK-MEL-2 melanoma.
Holding throughout (assay): inhibition of tumour cell growth, NCI panel, 48 h

Where “and” joins values, the source holds several entries; their conditions need not be identical. Equal entries are not always repeated.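 In this assay, cells in 96-well plates receive the compound at five concentrations for 48 hours. Endpoints are linearly interpolated between the surrounding concentrations. Here, GI50 denotes the concentration required for 50% inhibition of growth. At the TGI there is no net growth.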

`COc1ccc(-c2ncnc3c2ncn3CC#CCCl)cc1`: the GI50 in the experiment with 786-0 renal was 1.86 µM; with CAKI-1 renal it was 1.47 µM; in the experiment with COLO 205 colon, 3.51 µM; in the experiment on HOP-92 NSCLC, 2.75 µM; in the experiment on HS 578T breast it was 3.8 µM; in the experiment on MOLT-4 leukemia, 2.68 µM. Further, the GI50 in the experiment on SF-268 CNS is 1.66 µM; in the experiment on SK-OV-3 ovarian it was 10.5 µM; in the experiment with T-47D breast it was 2.89 µM. In addition, the TGI was 3.93 µM in the experiment on 786-0 renal; 3.11 µM in the experiment on CAKI-1 renal; 13.7 µM in the experiment with COLO 205 colon; 11.8 µM in the experiment with HOP-92 NSCLC; 22.1 µM in the experiment on HS 578T breast; above 100 µM in the experiment on MOLT-4 leukemia. Further, the results for the TGI with SF-268 CNS, in the experiment with SK-OV-3 ovarian and with T-47D breast were 4.13 µM, 22.7 µM and 12.7 µM, respectively.
In the case of `O=C(O)Cc1cccc2c(=O)cc(-c3ccccc3)oc12`, the GI50 in the experiment on 786-0 renal is above 250 µM; in the experiment on CAKI-1 renal, > 46.8 µM and 163 µM; in the experiment with COLO 205 colon it was 636 µM; in the experiment with HOP-92 NSCLC, 43.9 µM and 318 µM; with HS 578T breast, 415 µM; in the experiment with MOLT-4 leukemia, 288 µM. Besides, the GI50 in the experiment on SF-268 CNS is 814 µM; with SK-MEL-2 melanoma, 844 µM; in the experiment with SK-OV-3 ovarian, above 813 µM; in the experiment on T-47D breast it was 690 µM. In addition, the TGI is above 1000 µM in the experiment on 786-0 renal; > 72 µM and 194 µM and 420 µM with CAKI-1 renal; above 1000 µM in the experiment with COLO 205 colon; 178 µM and > 948 µM with HOP-92 NSCLC; 209 µM and 889 µM with HS 578T breast; above 824 µM in the experiment on MOLT-4 leukemia. The TGI is above 1000 µM in the experiment with SF-268 CNS; 250 µM and > 1000 µM in the experiment on SK-MEL-2 melanoma; 250 µM and > 1000 µM with SK-OV-3 ovarian; above 1000 µM in the experiment with T-47D breast.
For the molecule `COC(=O)/C=C1/SC(=Nc2cccc(Cl)c2)N(CCc2c[nH]c3ccc(O)cc23)C1=O`, the GI50 in the experiment on 786-0 renal is 1.67 µM; in the experiment with CAKI-1 renal, 1.83 µM; in the experiment with COLO 205 colon, 2.05 µM; in the experiment on HOP-92 NSCLC, 2 µM; with HS 578T breast, 2.68 µM; in the experiment on MOLT-4 leukemia, 1 µM. Moreover, the GI50 was 1.76 µM with SF-268 CNS, 1.53 µM with SK-MEL-2 melanoma, 2.24 µM in the experiment on SK-OV-3 ovarian and 2.03 µM with T-47D breast. The TGI in the experiment on 786-0 renal amounted to 3.4 µM; with CAKI-1 renal, 3.67 µM; with COLO 205 colon, 4.04 µM; with HOP-92 NSCLC, 4.67 µM; in the experiment with HS 578T breast it was 8.99 µM; with MOLT-4 leukemia, 5.1 µM. Further, the TGI in the experiment with SF-268 CNS amounted to 4.47 µM; with SK-MEL-2 melanoma, 3.08 µM; in the experiment with SK-OV-3 ovarian it was 5.01 µM; in the experiment with T-47D breast it was 7.15 µM.
On to `CC1(C)N=C(N)N=C(N)N1c1ccc(CNC(=O)Nc2ccc(S(=O)(=O)F)c(Cl)c2)c(Cl)c1`, for which the GI50 in the experiment on 786-0 renal was 0.872 µM; in the experiment with CAKI-1 renal, 12.5 µM; in the experiment with COLO 205 colon, 0.867 µM; in the experiment with HOP-92 NSCLC it was 19.9 µM; in the experiment with HS 578T breast it was 21.8 µM; with MOLT-4 leukemia it was 0.954 µM. Further, the GI50 is 0.686 µM in the experiment on SF-268 CNS, 12.2 µM in the experiment on SK-MEL-2 melanoma, above 45 µM in the experiment on SK-OV-3 ovarian and 11.6 µM in the experiment with T-47D breast. The TGI in the experiment with 786-0 renal is above 100 µM; with CAKI-1 renal, above 100 µM; in the experiment on COLO 205 colon it was above 100 µM; with HOP-92 NSCLC it was 97.5 µM; in the experiment with HS 578T breast it was above 100 µM; in the experiment on MOLT-4 leukemia it was above 100 µM. In addition, the TGI in the experiment on SF-268 CNS is above 100 µM; with SK-MEL-2 melanoma it was above 74.9 µM; in the experiment on SK-OV-3 ovarian, above 100 µM; in the experiment with T-47D breast, above 100 µM.
Consider `CCOC(=O)c1ccc(-n2cnc(-c3ccc([N+](=O)[O-])cc3)c2)cc1`, for which the TGI in the experiment on 786-0 renal, in the experiment with CAKI-1 renal, in the experiment on COLO 205 colon, in the experiment on HS 578T breast, with MOLT-4 leukemia and in the experiment on SF-268 CNS was above 100 µM in each case. Moreover, the TGI in the experiment on SK-MEL-2 melanoma, with SK-OV-3 ovarian and in the experiment with T-47D breast was above 100 µM each time.
Turning to `CC1(C)Oc2ccc3ccc(=O)oc3c2C(O)C1O` (stereo unspecified), the TGI in the experiment on 786-0 renal was above 100 µM; in the experiment on CAKI-1 renal, above 100 µM; in the experiment with COLO 205 colon it was 45.1 µM; in the experiment on HOP-92 NSCLC it was above 100 µM; in the experiment on HS 578T breast it was above 100 µM; with MOLT-4 leukemia, 53 µM. Further, the TGI with SF-268 CNS, in the experiment with SK-MEL-2 melanoma and in the experiment on T-47D breast was above 100 µM throughout.
Regarding `CCSC[C@@H]1C[C@](O)(c2ccc(Cl)cc2)[C@@H](c2ccc(Cl)cc2)O1`, the GI50 was 17 µM in the experiment with 786-0 renal; 27.6 µM with CAKI-1 renal; 14.4 µM in the experiment with COLO 205 colon; 20.9 µM in the experiment on HOP-92 NSCLC; 18 µM in the experiment with HS 578T breast; 17.7 µM with MOLT-4 leukemia. In addition, the GI50 with SF-268 CNS is 18.5 µM; with SK-MEL-2 melanoma, 16 µM; in the experiment on SK-OV-3 ovarian, 22.4 µM; in the experiment on T-47D breast, 14.8 µM. The TGI with 786-0 renal was determined as 31.9 µM; in the experiment with CAKI-1 renal, 63.2 µM; in the experiment on COLO 205 colon, 28.7 µM; with HOP-92 NSCLC it was 36.9 µM; in the experiment with HS 578T breast, 39.6 µM; in the experiment with MOLT-4 leukemia, 43.6 µM. Further, the TGI amounted to 35.7 µM in the experiment with SF-268 CNS, 35 µM in the experiment on SK-MEL-2 melanoma, 60.2 µM with SK-OV-3 ovarian and 38.6 µM in the experiment with T-47D breast.
For the molecule `Cc1ccc(S(=O)(=O)ON2C(=O)c3cccc4cc([N+](=O)[O-])cc(c34)C2=O)cc1`, the TGI in the experiment with 786-0 renal, in the experiment on CAKI-1 renal, with COLO 205 colon, with HOP-92 NSCLC, in the experiment on HS 578T breast and in the experiment with MOLT-4 leukemia was above 100 µM throughout. The TGI in the experiment on SF-268 CNS, in the experiment with SK-MEL-2 melanoma, with SK-OV-3 ovarian and with T-47D breast was above 100 µM throughout.
As for `COc1cc(-c2nn(-c3cccc(NC(=O)Nc4ccc(Cl)c(C(F)(F)F)c4)c3)cc2-c2ccncc2)ccc1Cl`, the GI50 in the experiment on 786-0 renal was 1.61 µM; in the experiment with CAKI-1 renal, 0.992 µM; in the experiment with COLO 205 colon it was 0.711 µM; in the experiment with HOP-92 NSCLC, 0.499 µM; in the experiment with HS 578T breast it was 1.32 µM; with MOLT-4 leukemia, 1.02 µM. In addition, the GI50 is 1.46 µM with SF-268 CNS, 1.01 µM in the experiment with SK-MEL-2 melanoma, 1.45 µM in the experiment on SK-OV-3 ovarian and 1.23 µM in the experiment on T-47D breast. For the same molecule, the TGI was 8.02 µM in the experiment with 786-0 renal; 4.72 µM in the experiment with CAKI-1 renal; 1.54 µM in the experiment on COLO 205 colon; 1.48 µM in the experiment with HOP-92 NSCLC; 18.3 µM with HS 578T breast; 7.96 µM in the experiment on MOLT-4 leukemia. The TGI in the experiment on SF-268 CNS is 9.14 µM; in the experiment on SK-MEL-2 melanoma, 2.58 µM; in the experiment with SK-OV-3 ovarian, 13 µM; with T-47D breast, above 32.5 µM.

The values above are taken from PubChem BioAssay (NCI).
